Experiment [1] relates to pAKT(S473) in FaDu cell line. The experiment is described as follows: In vitro Phospho-AKT(S473) HTRF analysis in FaDu cells. The format is cell-based. The following applies: Homo sapiens, 0.5 h; for IC50: FaDu cells, 30 minutes at 37° C.; for Emax: FaDu, read-out: FaDu pAKT Imax % control. The protocol: Example 5. In Vitro Phosgho-AKT(S473) Analysis
Functional activity of the compounds to inhibit pAKT were assessed in FaDu or H358 cell lines as indicated below.
• Complete Media • FBS, Corning catalog #35-010-CV • Anti-Anti, Gibco catalog #15240-062 • 96 well plate, Corning catalog #3610 • TrypLE, Gibco catalog #12604013 • Phospho-AKT(S473) HTRF kit, Cisbio catalog #64AKSPET
Cells were detached from the tissue culture flask with TrypLE. The cells were pelleted at 500×g for 5 min, TrypLe was removed and then resuspended in the necessary volume of media+1% FBS to give the appropriate cell density (17,500 cells/mL for FaDu; 20,000 cells/mL for H358). 100 μL of cell suspension/well was dispensed into the 96-well plate while keeping the outer wells of the plate free of cells and filled with PBS to prevent evaporation of interior wells. The plate was incubated at 37° C. and allowed to adhere overnight. The cells were treated with a dose response of compound and incubated at 37° C. for 30 minutes. The cells were then processed and pAKT(S473) levels were assessed following the specifications of the Cisbio HTRF kit.
Background: In TR-FRET formats the signal depends on donor and acceptor labels being close together.

Another experiment deals with T1, PIK3CA (Homo sapiens, UniProt P42336).
T1 construct: endogenous in cells; host or cells: Jurkat cell lysate
As to the kind of experiment: In vitro ELISA target engagement assay for PIK3CA in Jurkat cellular lysate (competition with PIK3CA Biotin Probe). The format is binding. The following applies: 1 hour at rt, then 500 nM PIK3CA Biotin Probe, read-out: Elisa Target Engagement Assay (TE50). In short, it runs like this: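 Jurkat lysate from sonicated frozen cells was preincubated 1 h at rt with serially diluted compound up to 200 μM, then labelled 1 h at rt with PIK3CA biotin probe at 500 nM final. Probe-bound PIK3CA was captured on antibody-coated plates and detected with Neutravidin-HRP luminescence; TE50 derived from the dose response.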
On the technique in general: In an ELISA, binding on a coated surface is turned into a signal by an enzyme label.

T1 sequence (P42336 whole entry): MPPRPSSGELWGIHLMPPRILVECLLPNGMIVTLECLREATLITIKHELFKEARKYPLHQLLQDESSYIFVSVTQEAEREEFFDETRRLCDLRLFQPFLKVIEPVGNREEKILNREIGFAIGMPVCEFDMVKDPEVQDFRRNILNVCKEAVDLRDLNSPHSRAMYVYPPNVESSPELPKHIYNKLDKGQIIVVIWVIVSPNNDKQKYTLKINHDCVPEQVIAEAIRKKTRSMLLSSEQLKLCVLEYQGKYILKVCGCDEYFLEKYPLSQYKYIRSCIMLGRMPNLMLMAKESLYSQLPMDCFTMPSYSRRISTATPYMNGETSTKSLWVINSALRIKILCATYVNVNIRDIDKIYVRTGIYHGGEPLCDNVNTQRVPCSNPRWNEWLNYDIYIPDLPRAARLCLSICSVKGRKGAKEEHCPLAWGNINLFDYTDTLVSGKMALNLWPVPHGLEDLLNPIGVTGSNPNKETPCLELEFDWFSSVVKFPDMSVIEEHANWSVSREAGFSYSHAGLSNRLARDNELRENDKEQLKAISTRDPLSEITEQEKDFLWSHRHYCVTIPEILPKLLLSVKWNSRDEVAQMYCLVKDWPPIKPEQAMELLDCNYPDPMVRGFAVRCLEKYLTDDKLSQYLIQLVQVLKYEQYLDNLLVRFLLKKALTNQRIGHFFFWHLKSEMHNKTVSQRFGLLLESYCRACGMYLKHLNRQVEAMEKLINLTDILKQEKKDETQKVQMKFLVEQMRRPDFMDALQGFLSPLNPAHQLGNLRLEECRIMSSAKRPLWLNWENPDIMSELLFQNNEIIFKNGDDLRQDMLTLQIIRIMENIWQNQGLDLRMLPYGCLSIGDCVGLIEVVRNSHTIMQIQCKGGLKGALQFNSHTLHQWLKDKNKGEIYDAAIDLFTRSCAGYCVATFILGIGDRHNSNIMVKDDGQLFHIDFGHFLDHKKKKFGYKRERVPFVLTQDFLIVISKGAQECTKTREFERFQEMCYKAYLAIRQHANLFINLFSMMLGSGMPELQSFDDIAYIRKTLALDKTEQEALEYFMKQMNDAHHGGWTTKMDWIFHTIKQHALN
T1 sequence (P27986 whole entry partner): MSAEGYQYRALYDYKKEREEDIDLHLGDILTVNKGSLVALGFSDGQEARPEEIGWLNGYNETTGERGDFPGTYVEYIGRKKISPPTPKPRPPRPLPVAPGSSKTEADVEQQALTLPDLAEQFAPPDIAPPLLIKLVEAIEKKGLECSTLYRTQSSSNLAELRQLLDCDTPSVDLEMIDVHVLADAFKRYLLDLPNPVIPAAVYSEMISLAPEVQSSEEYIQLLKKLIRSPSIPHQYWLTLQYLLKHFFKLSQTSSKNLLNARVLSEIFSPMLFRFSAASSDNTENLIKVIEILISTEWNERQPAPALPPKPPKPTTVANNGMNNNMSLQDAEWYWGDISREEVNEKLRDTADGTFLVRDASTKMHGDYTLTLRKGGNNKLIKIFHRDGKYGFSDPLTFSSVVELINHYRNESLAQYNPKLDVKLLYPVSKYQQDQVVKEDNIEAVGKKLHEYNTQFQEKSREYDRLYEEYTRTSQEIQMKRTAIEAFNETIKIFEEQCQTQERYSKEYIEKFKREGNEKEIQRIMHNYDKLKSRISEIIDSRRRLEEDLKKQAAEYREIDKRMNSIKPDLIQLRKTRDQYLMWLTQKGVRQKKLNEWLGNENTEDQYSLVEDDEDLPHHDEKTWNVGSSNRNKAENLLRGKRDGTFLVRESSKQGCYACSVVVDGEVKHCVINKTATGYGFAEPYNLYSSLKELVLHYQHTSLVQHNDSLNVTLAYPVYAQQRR

In the case of `COC[C@@H](/C=C\S(C)(=O)=O)NC(=O)C1(F)CCN(S(=O)(=O)c2ccc(Br)cc2-c2ccccc2Cl)CC1` [Compound 246, (R,Z)-1-((5-bromo-2′-chloro-[1,1′-biphenyl]-2-yl)sulfonyl)-4-fluoro-N-(1-methoxy-4-(methylsulfonyl)but-3-en-2-yl)piperidine-4-carboxamide], the IC50 in experiment [1] amounted to 163 nM; at PIK3CA it was 42 nM.

On to `C[C@H](/C=C/C(=O)N1CC(F)(F)C1)NC(=O)C1(F)CCN(S(=O)(=O)c2cnc(C(F)(F)F)cc2-c2ccccc2Cl)CC1` [Compound 213, (R,E)-1-((4-(2-chlorophenyl)-6-(trifluoromethyl)pyridin-3-yl)sulfonyl)-N-(5-(3,3-difluoroazetidin-1-yl)-5-oxopent-3-en-2-yl)-4-fluoropiperidine-4-carboxamide], for which, in experiment [1], the IC50 was 291 nM and the Emax came out at 90.8%. Moreover, the IC50 at PIK3CA came to 230 nM.

With `C[C@H](/C=C/C(=O)N1CC(F)C1)NC(=O)C1(F)CCN(S(=O)(=O)c2ccc(C(F)(F)F)cc2-c2ccccc2Cl)CC1` [Compound 216, (R,E)-1-((2′-chloro-5-(trifluoromethyl)-[1,1′-biphenyl]-2-yl)sulfonyl)-4-fluoro-N-(5-(3-fluoroazetidin-1-yl)-5-oxopent-3-en-2-yl)piperidine-4-carboxamide], the IC50 in experiment [1] turned out to be 688 nM; at PIK3CA it was 550 nM. In experiment [1], the Emax worked out at 108%.

`C[C@H](/C=C/C(=O)N1CC(F)(F)C1)NC(=O)[C@@]1(F)CCCN(C(=O)c2ccc(C(F)(F)F)cc2-c2c(F)cccc2Cl)CC1` [Compound 245, (4R)-1-(2′-chloro-6′-fluoro-5-(trifluoromethyl)-[1,1′-biphenyl]-2-carbonyl)-N-((R,E)-5-(3,3-difluoroazetidin-1-yl)-5-oxopent-3-en-2-yl)-4-fluoroazepane-4-carboxamide]: in experiment [1], the IC50 was 922 nM and the Emax came out at 86.2%. Further, the IC50 at PIK3CA turned out to be 620 nM.

As to `Cc1ccc(Cl)c([C@@H]2CN(CC(F)(F)F)C[C@@H]2C(=O)N2CCC[C@](F)(C(=O)N[C@H](C)/C=C\S(C)(=O)=O)CC2)c1` (single isomer, unassigned) [Compound 170, (R)-1-((3*R,4*R)-4-(2-chloro-5-methylphenyl)-1-(2,2,2-trifluoroethyl)pyrrolidine-3-carbonyl)-4-fluoro-N-((R,Z)-4-(methylsulfonyl)but-3-en-2-yl)azepane-4-carboxamide], in experiment [1], the IC50 came to 484 nM and the Emax is 83.2%. Besides, the IC50 at PIK3CA amounted to 760 nM.

As to `CC[C@H](/C=C\S(C)(=O)=O)NC(=O)[C@@]1(F)CCCN(C(=O)[C@H]2CN(CC(F)(F)F)C[C@H]2c2ccccc2Cl)CC1` [Compound 198, (R)-1-((3R,4R)-4-(2-chlorophenyl)-1-(2,2,2-trifluoroethyl)pyrrolidine-3-carbonyl)-4-fluoro-N-((R,Z)-1-(methylsulfonyl)pent-1-en-3-yl)azepane-4-carboxamide], in experiment [1], the IC50 was determined as 472 nM and the Emax amounted to 95.2%. The IC50 at PIK3CA came out at 540 nM.

In the case of `C[C@H](/C=C\S(C)(=O)=O)NC(=O)[C@@]1(F)CCCN(C(=O)[C@H]2CN(C3CC3)C[C@H]2c2ccccc2Cl)CC1` [Compound 303, (R)-1-((3R,4R)-4-(2-chlorophenyl)-1-cyclopropylpyrrolidine-3-carbonyl)-4-fluoro-N-((R,Z)-4-(methylsulfonyl)but-3-en-2-yl)azepane-4-carboxamide], in experiment [1], the IC50 is 243 nM and the Emax is 102%. On PIK3CA, the IC50 came to 557 nM.

`COc1ccc(C(=O)N2CCC[C@](F)(C(=O)N[C@@H]3C=CS(=O)(=O)C3)CC2)c(-c2ccccc2Cl)c1` [Compound 294, (R)-1-(2′-chloro-5-methoxy-[1,1′-biphenyl]-2-carbonyl)-N-((R)-1,1-dioxido-2,3-dihydrothiophen-3-yl)-4-fluoroazepane-4-carboxamide]: the IC50 in experiment [1] came out at 2120 nM; at PIK3CA it was 120 nM.

Regarding `CC(=O)c1ccc(S(=O)(=O)N2CCC(F)(C(=O)N[C@H](C)/C=C/C(=O)N3CC(F)(F)C3)CC2)c(-c2ccccc2Cl)c1` [Compound 138, (R,E)-1-((5-acetyl-2′-chloro-[1,1′-biphenyl]-2-yl)sulfonyl)-N-(5-(3,3-difluoroazetidin-1-yl)-5-oxopent-3-en-2-yl)-4-fluoropiperidine-4-carboxamide], the IC50 in experiment [1] is 292 nM; at PIK3CA, 340 nM. In addition, in experiment [1], the Emax stood at 93.5%.

Regarding `C[C@H](/C=C\S(C)(=O)=O)NC(=O)[C@]1(F)CCN(S(=O)(=O)c2ccc(Br)cc2-c2ccccc2Cl)[C@H](C)C1` [Compound 143, (2R,4S)-1-((5-bromo-2′-chloro-[1,1′-biphenyl]-2-yl)sulfonyl)-4-fluoro-2-methyl-N-((R,Z)-4-(methylsulfonyl)but-3-en-2-yl)piperidine-4-carboxamide], in experiment [1], the IC50 was 117 nM and the Emax worked out at 111%. For the same compound, on PIK3CA, the IC50 came to 66.5 nM.

Consider `C[C@H](/C=C/C(=O)N1CC(F)(F)C1)NC(=O)[C@]1(F)CCN(S(=O)(=O)c2ccc(OC(F)F)cc2-c2ccccc2Cl)[C@H](C)C1` [Compound 251, (2R,4S)-1-((2′-chloro-5-(difluoromethoxy)-[1,1′-biphenyl]-2-yl)sulfonyl)-N-((R,E)-5-(3,3-difluoroazetidin-1-yl)-5-oxopent-3-en-2-yl)-4-fluoro-2-methylpiperidine-4-carboxamide], for which, in experiment [1], the IC50 is 249 nM and the Emax worked out at 102%. Moreover, at PIK3CA, the IC50 was determined as 260 nM.

Consider `C[C@H](/C=C\S(=O)(=O)[C@H]1CCN(C)C1)NC(=O)C1(F)CCN(S(=O)(=O)c2ccc(Br)cc2-c2ccccc2Cl)CC1` (single isomer, unassigned) [Compound 238, 1-((5-bromo-2′-chloro-[1,1′-biphenyl]-2-yl)sulfonyl)-4-fluoro-N-((R,Z)-4-(((*S)-1-methylpyrrolidin-3-yl)sulfonyl)but-3-en-2-yl)piperidine-4-carboxamide], for which the IC50 was found to be 29.2 nM in experiment [1] and 25 nM at PIK3CA.

Regarding `CC(O)c1ccc(S(=O)(=O)N2CC[C@@](F)(C(=O)N[C@H](C)/C=C/C(=O)N3CC(F)(F)C3)C[C@H]2C)c(-c2ccccc2Cl)c1` (mixture of isomers) [Compound 252, (2R,4S)-1-((2′-chloro-5-((RS)-1-hydroxyethyl)-[1,1′-biphenyl]-2-yl)sulfonyl)-N-((R,E)-5-(3,3-difluoroazetidin-1-yl)-5-oxopent-3-en-2-yl)-4-fluoro-2-methylpiperidine-4-carboxamide], in experiment [1], the IC50 worked out at 248 nM and the Emax came out at 85.8%. Further, the IC50 at PIK3CA worked out at 280 nM.

In the case of `C[C@H]1C[C@](F)(C(=O)N[C@@H]2C=CS(=O)(=O)C2)CCN1C(=O)[C@H]1CN(CC(F)(F)F)C[C@H]1c1ccccc1Cl` (single isomer, unassigned) [Compound 174, (2*S,4*S)-1-((3R,4R)-4-(2-chlorophenyl)-1-(2,2,2-trifluoroethyl)pyrrolidine-3-carbonyl)-N-((R)-1,1-dioxido-2,3-dihydrothiophen-3-yl)-4-fluoro-2-methylpiperidine-4-carboxamide], in experiment [1], the IC50 stood at 168 nM and the Emax came to 91.8%. Further, the IC50 on PIK3CA was determined as 276 nM.

Take `C[C@H](/C=C\S(C)(=O)=O)NC(=O)C1(F)CCN(S(=O)(=O)c2ccc(Br)cc2-c2cccc(Br)c2)CC1` [Compound 58, (R,Z)-1-((3′,5-dibromo-[1,1′-biphenyl]-2-yl)sulfonyl)-4-fluoro-N-(4-(methylsulfonyl)but-3-en-2-yl)piperidine-4-carboxamide]: in experiment [1], the IC50 came out at 743 nM and the Emax was found to be 97.5%. Also, the IC50 on PIK3CA was determined as 850 nM.

Take `O=C([C@H]1CN(CC(F)(F)F)C[C@H]1c1ccccc1Cl)N1CCC(F)(C(=O)N[C@@H]2C=CS(=O)(=O)C2)CC1` [Compound 164, 1-((3R,4R)-4-(2-chlorophenyl)-1-(2,2,2-trifluoroethyl)pyrrolidine-3-carbonyl)-N—((R)-1,1-dioxido-2,3-dihydrothiophen-3-yl)-4-fluoropiperidine-4-carboxamide]: the results for the IC50 (in experiment [1]; on PIK3CA) were 834 nM and 370 nM, respectively. For the same compound, in experiment [1], the Emax is 103%.

Take `C[C@H](/C=C\S(C)(=O)=O)NC(=O)[C@@]1(F)CCCN(C(=O)c2ccc(C(F)(F)F)cc2-c2ccccc2Cl)CC1` [Compound 242, (R)-1-(2′-chloro-5-(trifluoromethyl)-[1,1′-biphenyl]-2-carbonyl)-4-fluoro-N-((R,Z)-4-(methylsulfonyl)but-3-en-2-yl)azepane-4-carboxamide]: the IC50 stood at 138 nM in experiment [1] and 72 nM at PIK3CA.

Consider `CCOc1ccc(S(=O)(=O)N2CC[C@@](F)(C(=O)N[C@H](C)/C=C/C(=O)N3CC(F)(F)C3)C[C@H]2C)c(-c2ccccc2Cl)c1` [Compound 298, (2R,4S)-1-((2′-chloro-5-ethoxy-[1,1′-biphenyl]-2-yl)sulfonyl)-N-((R,E)-5-(3,3-difluoroazetidin-1-yl)-5-oxopent-3-en-2-yl)-4-fluoro-2-methylpiperidine-4-carboxamide], for which, in experiment [1], the IC50 came to 322 nM and the Emax was determined as 102%. Further, at PIK3CA, the IC50 was found to be 720 nM.

The values are drawn from patent publication US20250026721A1, “COMPOUNDS AND METHODS FOR MODULATING RAS-PI3K” (Vividion Therapeutics, Inc., priority 2023, published 2025).
